Counter-ions that a name gives are not always drawn. Blank lines part the entries; values can stand above or below the compound they belong to.
What was measured:
[1] = Dog pharmacokinetics, oral powder in capsule; type: in vivo, beagle dogs; conditions: for AUCinf / AUClast: single 3 mg/kg, powder in capsule, mean, 3 mg/kg, in ng·h/mL
Procedure: Groups, Dosing, and Collection. The pharmacokinetics of the free acid and the tris salt of the compound of Formula I administered by oral capsules was assessed in dogs. Three male beagle dogs were administered a single dose of 3 mg/kg free acid on Day 1 of the study, and a single dose of 3 mg/kg tris salt on Day 8 of the study. Plasma was collected pre-dose, and at 0.5, 1, 2, 4, 8, 12 and 24 hours post-dose via puncture of peripheral veins.
(§1) LC MS-MS Analysis. Liquid Chromatography with tandem mass spectrometry was used to determine plasma concentrations of the compound of Formula I free acid and the tris salt in plasma samples collected at prescribed time points. Instrumentation included YMC-Triart C18, S-5 μm (50×2.1 mm) HPLC column, liquid chromatograph Shimadzu LC-30AD with communications bus module CBM-20A and Auto SIL-20AC HT; and a Triple Quad 5500 LC/MS/MS instrument. Tolbutamide was used as an internal standard.

[2] = Rat pharmacokinetics, oral gavage, plasma by LC-MS/MS; type: in vivo, Sprague-Dawley rats
[3] = Dog pharmacokinetics, oral gavage of suspension (0.5% methylcellulose in saline); type: in vivo; conditions: male beagle dogs; for AUC(0-inf) / AUC(0-t): dog, plasma, oral gavage suspension, mean
Procedure: In a follow-up study, the pharmacokinetics of tris salt of the compound of Formula I were investigated via oral gavage of a 0.5% methylcellulose in saline formulation. Two groups of animals were tested. In Group 1, three male beagle dogs were administered a single dose of 3 mg/kg tris salt. In Group 2, three male beagle dogs were administered a single dose of 30 mg/kg tris salt. Plasma was collected pre-dose, and at 0.5, 1, 2, 4, 8, 12 and 24 hours post-dose via puncture of peripheral veins.
as §1

MCT4 = MCT4 (Homo sapiens, UniProt O15427); conditions: affinity of MCT4 for lactate; cited from earlier work
Chain of MCT4 (O15427 whole entry): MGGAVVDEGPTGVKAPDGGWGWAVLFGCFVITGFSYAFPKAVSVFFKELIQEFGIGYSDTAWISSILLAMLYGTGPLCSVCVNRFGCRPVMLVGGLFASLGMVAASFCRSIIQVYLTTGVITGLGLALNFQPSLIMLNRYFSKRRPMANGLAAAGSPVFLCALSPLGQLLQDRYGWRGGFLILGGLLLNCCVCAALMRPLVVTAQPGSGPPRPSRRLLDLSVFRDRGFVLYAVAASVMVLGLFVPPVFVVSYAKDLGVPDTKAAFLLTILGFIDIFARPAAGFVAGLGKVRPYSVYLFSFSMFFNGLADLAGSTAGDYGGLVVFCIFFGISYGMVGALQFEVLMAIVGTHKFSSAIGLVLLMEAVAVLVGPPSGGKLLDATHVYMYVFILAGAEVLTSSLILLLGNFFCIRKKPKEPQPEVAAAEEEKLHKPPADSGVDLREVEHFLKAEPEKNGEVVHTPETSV

[4] = rat male, 20 mg/kg free acid, oral gavage, mean
[5] = male beagle dogs, listed as Salt

Structure (SMILES): CC(C)(OCc1cc(-c2cccc(OC3CCC3)c2)n(-c2ccccc2N2CCC2)n1)C(=O)O [Free Acid, 2-([1-[2-(azetidin-1-yl)phenyl]-5-(3-cyclobutoxyphenyl)-1H-pyrazol-3-yl]methoxy)-2-methylpropanoic acid]
clinical symptoms ([1]; male beagle dogs, single 3 mg/kg oral capsule): No abnormal clinical symptoms
AUCinf ([1]; male beagle dogs): 1265
AUClast ([1]; male beagle dogs): 1215
AUC—% Extrap_obs ([2]; rat female, 20 mg/kg free acid, oral gavage, mean): 9.9%
AUC—% Extrap_obs ([2]; rat female, 60 mg/kg free acid, oral gavage, mean): 16.7%
AUC—% Extrap_obs ([2]; rat female, 200 mg/kg free acid, oral gavage, mean): 22.1%
AUClast/D [2, 4]: 8332 ng·h/mL
AUC—% Extrap_obs [2, 4]: 0.61%
AUC—% Extrap_obs ([2]; rat male, 60 mg/kg free acid, oral gavage, mean): 0.477%
AUC—% Extrap_obs ([2]; rat male, 200 mg/kg free acid, oral gavage, mean): 0.704%
clinical symptoms ([2]; rats, single oral gavage, all dose groups): No abnormal clinical symptoms

total drug exposure across time (AUClast and AUCInf) compared to the free acid ([1]; dogs, powder in capsule and suspension formulations): higher
AUCinf [1, 5]: 4092
AUClast [1, 5]: 3924
AUC—% Extrap_obs ([2]; rat female, 25 mg/kg tris salt, oral gavage, mean): 9%
AUC—% Extrap_obs ([2]; rat female, 75 mg/kg tris salt, oral gavage, mean): 18.5%
AUC—% Extrap_obs ([2]; rat female, 250 mg/kg tris salt, oral gavage, mean): 59.9%
AUC—% Extrap_obs ([2]; rat male, 25 mg/kg tris salt, oral gavage, mean): 1.28%
AUC—% Extrap_obs ([2]; rat male, 75 mg/kg tris salt, oral gavage, mean): 0.473%
AUC—% Extrap_obs ([2]; rat male, 250 mg/kg tris salt, oral gavage, mean): 26.5%
total drug exposure across time (AUClast and AUCInf) versus free acid groups ([2]; rats, male and female): higher
Maximum exposure levels (Cmax) versus free acid groups ([2]; rats, male and female, except females at 20/25 mg/kg): higher
AUC(0-inf) ([3]; 3 mg/kg): 5200 ng·h/mL
AUC(0-t) ([3]; 3 mg/kg): 5080 ng·h/mL
AUC(0-inf) ([3]; 30 mg/kg): 56800 ng·h/mL
AUC(0-t) ([3]; 30 mg/kg): 41300 ng·h/mL
clinical symptoms ([3]; single 3 or 30 mg/kg oral gavage): No abnormal clinical symptoms
Structure (SMILES): CC(C)(OCc1cc(-c2cccc(OC3CCC3)c2)n(-c2ccccc2N2CCC2)n1)C(=O)O [Tris Salt]

Structure (SMILES): CC(O)C(=O)O (stereo not shown) [lactate]
Km (MCT4): 28 mM

— US20250206723A1, “METHODS AND PROCESSES FOR THE PREPARATION OF MCT4 INHIBITORS” (Vettore, LLC, priority 2022, published 2025)
